Experimental findings from US10201543B2, “Therapeutically active compounds and their methods of use” (Agios Pharmaceuticals, Inc., priority 2015, dated 2019) are described below.

As a reminder, the IC50 is the point on the concentration scale where inhibition reaches its midpoint.

The test system of data set [1] is human CYP3A4. Description: CYP induction, CYP3A4.
The subject of data set [2] is CYP1A2. Description: CYP induction, CYP1A2. The format is in vitro ADME.
For data set [3], the system named is CYP2B6. Description: CYP induction, CYP2B6.
For data set [4], the system named is primary human IDH2 (R140Q) mutant AML cells. Description: Ex vivo treatment of primary human AML blast cells. Format: cell-based. As to conditions: for percentage of blast cells: from 90%, 500, 1000, 5000 nM. The source says:
Cells are counted at Days 3, 6, 9, and 13 and normalized to DMSO control.

Data set [5] has as its system TF-1 IDH2 (R140Q) mutant cells. The data set is described as follows: EPO-induced differentiation in TF-1 IDH2 (R140Q) mutant cells. As to conditions: when 2-HG levels fall below 1 mM. The format is cell-based.
Data set [6] relates to TF-1/IDH2 (R140Q) mutant cells. The data set is described as follows: 2-HG levels in TF-1/IDH2 (R140Q) mutant cells. Format: cell-based. Here is the method:
TF-1/IDH2 (R140Q) mutant cells are treated in vitro for 7 days with vehicle (dimethylsulfoxide; […].

Data set [7] concerns TF-1 IDH2 (R140Q) cells. Description: GM-CSF-independent growth of TF-1 IDH2 (R140Q) cells. Format: cell-based. Particulars: 1 μM, 7 days.
Data set [8] relates to AMNI7577-P2 (HuKemia model). Description: Survival in mutant positive AML mouse model (AMNI7577-P2, NOD/SCID mice). Format: in vivo.
Data set [9] has as its system U87MG IDH2 (R140Q) tumor. Description: PK/PD in U87MG IDH2 (R140Q) mouse xenograft model. Particulars: 3 consecutive doses of 25 mg/kg or above, twice daily, 12 hour interval.
For data set [10], the system named is TF-1 IDH2 (R140Q) cells. Description: Vimentin expression in TF-1 IDH2 (R140Q) cells. The format is cell-based. Particulars: 7 days; 2-HG levels below 1 mM, dose >200 nM.

For the molecule `Nc1nc(Nc2ccnc(C(F)(F)F)c2)nc(-c2cccc(C(F)(F)F)n2)n1` [compound 2, 6-(6-(trifluoromethyl)pyridin-2-yl)-N2-(2-(trifluoromethyl)pyridin-4-yl)-1,3,5-triazine-2,4-diamine], in data set [1], the “induction of human CYP3A4” value is on record as “weak inducers”. For the same molecule, the “induction of CYP1A2” value in [2] is “not observed”. Moreover, the “induction of CYP2B6” value in data set [3] is recorded as “not observed”.
Regarding `CC(C)(O)CNc1nc(Nc2ccnc(C(F)(F)F)c2)nc(-c2cccc(C(F)(F)F)n2)n1` [compound 3, 2-Methyl-1-[(4-[6-(trifluoromethyl)pyridin-2-yl]-6-{[2-(trifluoromethyl)pyridin-4-yl]amino}-1,3,5-triazin-2-yl)amino]propan-2-ol], in data set [4] (9 days ex vivo), the “population of more differentiated cells (metamyelocytes)” value is recorded as “clear increase”. In addition, the “percentage of blast cells” value in [4] (Day 6) is recorded as 55%; in data set [4] (Day 9), 40%. The “intracellular 2-HG” value in data set [4] (ex vivo treatment) is on record as “decrease”. Also, the “EPO-induced expression of hemoglobin gamma 1/2 and KLF-1” value in [5] was “restores”. For the same molecule, the “intracellular levels of 2-HG” value in [6] (5 μM, 7 days, 15.5 mM with DMSO) is on record as 0.08 mM. For the same molecule, the inhibition at 1 µM in data set [6] (168 h, read-out: 2-HG production inhibited) is over 99%. Further, the IC90 in [6] (168 h, read-out: inhibitory concentration, 90% (IC90) for 2-HG inhibition) is 160 nM. Besides, in [6] (168 h, read-out: intracellular IC50 for 2-HG inhibition), the IC50 is 16 nM. Also, in data set [7], the GM-CSF independent growth entry is “reversed”. Also, in data set [8] (45 mg/kg PO/BID, Day 48-84), the “Survival at study termination” value is recorded as “all 9 mice survived”. The “survival in comparison to cytarabine” value in data set [8] (5, 15, 45 mg/kg) was “dose dependent survival advantage”. The “leukemia burden and differentiation” value in data set [8] (all treated animals) is “dose dependent decrease in leukemia and evidence of normal differentiation”. The “tumor 2-HG levels” value in [9] was “decrease to baseline”. For the same molecule, the “vimentin expression induced by IDH2 (R140Q)” value in data set [10] is listed as “reduced to baseline levels”.
